# Assays:
# [1] = system: liver LDLR; test: rescue of liver LDLR upon treatment with PCSK9 in a mouse model (immuno-blotting); assay type: in vivo; details: mice, 60 mg/kg i.v. 2 h before 30 μg PCSK9 i.v., liver after 1 h
# Description: Mice were injected with vehicle (V), EGF-Fc (WT) or EGF66-Fc (MUT) followed by a bolus injection of recombinant human PCSK9 (30 μg/mouse). Livers were collected after 1 h and LDLR quantified by immuno-blotting. Each lane represents the pooled liver samples of three mice. The band intensities were quantified, normalized to transferring receptor contents and expressed as fraction of the untreated group (=1.0).
# To determine whether increased affinity and cell efficacy could translate into improved therapeutic potential, we compared the effects of EGFwt-Fc and EGF66-Fc in rescuing liver LDLR upon treatment with PCSK9 in a mouse model. Eight weeks old male C57BL/6 mice were purchased from approved vendor and housed for 2 weeks before starting the experiment. […]
# Approximately 200 mg of each liver were homogenized in Extraction Buffer 1 supplemented with Protease Inhibitor Cocktail (ProteoExtract® Native Membrane Protein Extraction Kit, Cat. No. 444810, Calbiochem) using the TissueLyser (Qiagen) according to manufacturer's instructions. […] After 30 min of gentle agitation at 4° C., the samples were centrifuged and the supernatants containing the membrane proteins were quantified using the Bradford assay. […]
# Mice were first injected with vehicle, EGFwt-Fc and EGF66-Fc followed by a bolus of recombinant human PCSK9 (30 μg/mouse) and livers were collected and analyzed 1 h later. […]
# [2] = system: PCSK9-mediated LDLR degradation; test: LDLR degradation assay with HepG2 cells (FACS of cell surface LDLR); assay type: cell-based, human; details: HepG2, 15 μg/ml PCSK9, 4 h, highest concentration tested 20 μM
# Description: Values are the average ±SD of three independent experiments.
# HepG2 cells (ATCC; Manassas, Va.) were seeded into 48 well plates (Corning; Corning, N.Y.) at 1×10^5 cells per well in high glucose medium (DMEM, Gibco; Carlsbad, Calif.) containing 2 mM glutamine (Sigma), penicillin/streptomycin (Gibco) and 10% FBS (Sigma) and incubated overnight. Then the medium was changed to DMEM containing 10% lipoprotein deficient serum (LPDS, Intracel; Frederick, Md.). After 24 h, 15 μg/ml PCSK9 was mixed with serially diluted EGFwt-Fc and EGF66-Fc fusion proteins, added to the cells and incubated at 37° C. for 4 h. Cells were rinsed with PBS and detached using 2.5 mM EDTA (EMD; Gibbstown, N.J.). After centrifugation, the resuspended cells were incubated with 1:20 anti-LDLR antibody (Progen Biotechnik; Heidelberg, Germany) on ice for 15 min. The samples were then washed with PBS and incubated with 1:200 diluted goat anti mouse IgG Alexa Fluor® 488 (Invitrogen; Carlsbad, Calif.) on ice for 15 min. After two PBS washes cells were resuspended in PBS containing 10 μg/ml of propidium iodide and analyzed on a dual laser flow cytometer (FACScan, Becton Dickinson; Franklin Lakes, N.J.). Relative fluorescence units (RFUs) were used to quantify LDLR expression levels on the HepG2 cell surface. Cell surface LDLR levels were expressed as percent of LDLR levels measured in the absence of PCSK9 (=control).
# [3] = molecular target: T1, PCSK9 binding to LDLR (Homo sapiens, UniProt Q8NBP7); test: competition binding ELISA (biotinylated PCSK9 binding to coated rLDLR); details: Fc fusion protein; average ±SD of three experiments; read-out: IC50, inhibition of PCSK9 binding to LDLR
# T1 construct: His8 (C); biotin (chemical, Sulfo-NHS); host or cells: PCSK9: CHO cells, transient; LDLR extracellular domain purchased
# Description: The blocking activity of EGF peptides and EGF-Fc fusion proteins was determined by using a competition binding ELISA. Wells of 384 well MaxiSorp™ plates (Nalge Nunc International; Rochester, N.Y.) were coated overnight at 4° C. with 1 μg/mL of recombinant human LDLR extracellular domain (rLDLR) (R&D Systems; Minneapolis, Minn.) in coating buffer (50 mM sodium carbonate, pH 9.6). Then 0.5 μg/ml of biotinylated PCSK9 in assay buffer (25 mM HEPES, pH 7.2, 150 mM NaCl, 0.2 mM CaCl2, 0.1% BSA, 0.05% Tween®20) was mixed with an equal volume of serially diluted EGF peptides (0.017-6000 nM) or EGF-Fc (0.034-6000 nM) and incubated for 30 min. The solutions were added to rLDLR coated plates and incubated for 2 h. Bound biotinylated rPCSK9 was detected by sequential additions of streptavidin-horseradish peroxidase (GE Healthcare; Buckinghamshire, UK) and substrate 3, 3′, 5, 5′ tetramethyl benzidine (TMBE 1000, Moss; Pasadena, Md.). The mean absorbance values from duplicate wells were plotted as a function of antibody concentration and the data were fitted to a four parameter equation for each antibody using KaleidaGraph (Synergy Software; Reading, Pa.).
# [4] = molecular target: T2, PCSK9 (Homo sapiens, UniProt Q8NBP7); test: spot phage ELISA of EGF(A)-displaying phage clones against biotinylated PCSK9; assay type: binding; details: compared to wild type
# T2 construct: His8 (C); made in house; host or cells: CHO cells, transient, pRK5 vector, purified from conditioned media
# T2 sequence (Q8NBP7 153-692): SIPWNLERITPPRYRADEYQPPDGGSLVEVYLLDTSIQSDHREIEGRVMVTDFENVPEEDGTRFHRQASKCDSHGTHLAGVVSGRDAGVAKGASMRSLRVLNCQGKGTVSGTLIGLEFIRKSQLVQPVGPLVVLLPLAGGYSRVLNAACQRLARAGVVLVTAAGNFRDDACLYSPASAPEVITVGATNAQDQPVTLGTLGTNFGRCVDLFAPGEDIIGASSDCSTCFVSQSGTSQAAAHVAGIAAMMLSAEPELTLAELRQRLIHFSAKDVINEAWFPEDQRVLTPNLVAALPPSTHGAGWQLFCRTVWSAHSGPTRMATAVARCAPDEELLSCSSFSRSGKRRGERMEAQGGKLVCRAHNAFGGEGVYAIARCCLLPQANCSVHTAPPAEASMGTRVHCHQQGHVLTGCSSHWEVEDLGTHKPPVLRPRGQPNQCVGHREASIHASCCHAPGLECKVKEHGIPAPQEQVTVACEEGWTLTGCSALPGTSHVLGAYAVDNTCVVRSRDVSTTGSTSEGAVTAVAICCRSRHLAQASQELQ
# Description: “s/n ratio” refers to signal:noise ratio, wherein “signal” is the spot phage ELISA signal detected against biotinylated PCSK9 captured by NeutrAvidin coated on the 384-well MaxiSorp™ plate; “noise” is the ELISA signal against NeutrAvidin alone.
# After four rounds of binding selection, individual phage clones were picked and inoculated into 450 μl 2YT media containing 50 μg/ml carbenecillin and M13-KO7 helper phage in 96-well blocks, which were grown at 37° C. for overnight. The supernatant was analyzed with spot phage ELISA as follows: Biotinylated PCSK9 was captured to NeutrAvidin-coated 384-well MaxiSorp™ immunoplates and phage supernatant diluted (1:3) with PBT buffer was added to the wells. The plates were washed and bound phage was detected with anti-M13-HRP followed by TMB substrate. In these assays, phage binding to NeutrAvidin alone was tested in parallel to assess background binding. Clones whose binding signals for PCSK9 were more than 4 times higher than to NeutrAvidin (background) were considered positive. Positive clones were subjected to DNA sequence analysis.
# T1 sequence (Q8NBP7 153-692): as above
# T1 sequence (Q8NBP7 31-152 partner limits assumed): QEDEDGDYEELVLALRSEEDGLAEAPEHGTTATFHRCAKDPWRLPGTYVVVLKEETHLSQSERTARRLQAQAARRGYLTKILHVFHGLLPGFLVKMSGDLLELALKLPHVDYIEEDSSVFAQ
substance,measurement,setting,value
EGFwt-Fc: wild type EGF(A) domain of LDLR fused via linker GGGSGAAQVTNKTHT to Fc domain of human IgG1 [reference compound],"liver LDLR level rescued, % of control levels",[1],less than 50%
same,"LDLR surface levels, percent of control levels measured in the absence of PCSK9",[2],56%
"EGF52: EGF(A) variant: Asp299 to Ser, Asn301 to Leu, Asn309 to Arg or Lys, Asp310 to Lys; phage clone and synthetic peptide",IC50,[3],0.7 ± 0.3 nM
EGF50: phage-displayed EGF(A) clone with single mutation at N309 to Arg,binding of phage-displayed clone to PCSK9 (in words),[4],moderate increase of binding

# Source: patent US20140212431A1, “PCSK9-BINDING POLYPEPTIDES AND METHODS OF USE” (Genentech, Inc., priority 2011, published 2014)
